Measurements taken from patent US20120270917A1 (The Trustees of the University of Pennsylvania, priority 2009, published 2012).
Counter-ions that a name gives are not always drawn.

Columns and labels:
AM2 (S31N) = AM2 (S31N) (Influenza A virus, UniProt P0DOF5, S31N); assay type: cell-based
AM2 (V27A) = AM2 (V27A) (Influenza A virus, UniProt P0DOF5, V27A); assay type: cell-based

SMILES	AM2 (S31N) % inhibition at 100 uM (AM2 (S31N))	AM2 (V27A) % inhibition at μM (AM2 (V27A)) [%]	AM2 (S31N) % inhibition at μM (AM2 (S31N)) [%]	also measured
NC12CC3CC(CC(C3)C1)C2 [Amantadine, reference compound]	–	–	–	S31N % of inhibition by 100 μM for 2 min (AM2 (S31N)): 34.7 ± 1.6%
NC12CC3CC(C1)CC(O)(C3)C2 [Compound 38]	38 (20%)	–	–	–
N=C(N)NC12CC3CC(CC(C3)C1)C2 [Compound 39, 1-(adamantyl)guanidine]	39 (0%)	–	–	–
CC(NC(=N)N)C12CC3CC(CC(C3)C1)C2 (centres unmarked) [Compound 40]	40 (0%)	–	–	–
Cl.Cl.N=C(N)NC(=N)NC12CC3CC(CC(C3)C1)C2 [Compound 41]	41 (0%)	–	–	–
NOC12CC3CC(CC(C3)C1)C2 [Compound 42, O-adamantylhydroxylamine]	42 (15%)	–	–	–
Cc1nc[nH]c1/C=N/OC12CC3CC(CC(C3)C1)C2 [Compound 43, 5-Methyl-3H-imidazole-4-carbaldehyde O-adamantan-1-yl-oxime]	43 (10%)	–	–	–
N=C(N)C12CC3CC(CC(C3)C1)C2 [Compound 44, Adamantane amidine hydrochloride]	44 (31.5%)	–	–	–
NC1CSC2(SC1)C1CC3CC(C1)CC2C3 (centres unmarked) [Compound 45]	45 (0%)	–	–	–
N=C(NO)C12CC3CC(CC(C3)C1)C2 [Compound 46, N-hydroxyadamantanecarboximidamide]	46 (0%)	–	–	–
C1NC2CC3CC1CC(C3)C2.Cl [Compound 47, 4-Azatricyclo[4.3.1.1^3,8]undecan hydrochloride]	47 (8%)	–	–	–
NC(=O)C12CC3CC(CC(C3)C1)C2 [Compound 48]	48 (7.3%)	–	–	–
O=CC12CC3CC(CC(C3)C1)C2 [Compound 49, 1-adamantanecarboaldehyde]	49 (11%)	–	–	–
O=C1C2CC3CC(C2)CC1C3 [Compound 50]	50 (0%)	–	–	–
O=C1C2CC3CC1CC(C2)C3=O [Compound 52, 2,6-diadamantone]	52 (0%)	–	–	–
OC1(C(F)(F)F)C2CC3CC(C2)CC1C3 (centres unmarked) [Compound 53, 2-trifluoromethyl-2-adamantol]	53 (14%)	–	–	–

SMILES	AM2 (S31N) % inhibition at 100 uM (AM2 (S31N))	AM2 (V27A) % inhibition at μM (AM2 (V27A)) [%]	AM2 (S31N) % inhibition at μM (AM2 (S31N)) [%]	also measured
O=[N+]([O-])C12CC3CC(CC(C3)C1)C2 [Compound 54, 1-nitroadamantane]	54 (24%)	–	–	–
Cl.NC1C[C@@H]2C[C@@H]3CC1[C@H](C2)C3 (stereo partly drawn) [Compound S1, (2S,3aS,5R)-octahydro-1H-2,5-methanoinden-7-aminium chloride]	–	25.5	–	–
Cl.NC12CC3CCC(CC(C3)C1)C2 [Compound S2, tricyclo[4.3.1.13,8]undecan-1-aminium chloride]	–	13.6	23.7	–
O=[N+]([O-])C1C2CC3CC(C2)CC1C3 (centres unmarked) [Compound S3]	–	7.4	12.4	–
CC1(O)C2CC3CC(C2)CC1C3 (centres unmarked) [Compound S4]	–	10.9	10.6	–
CC1(N)C2CC3CC(C2)CC1C3 (centres unmarked) [Compound S5]	–	7.2	13.8	–
NC1(C(F)(F)F)C2CC3CC(C2)CC1C3 (centres unmarked) [Compound S6]	–	1.5	13.7	–
NS(=O)(=O)NC1C2CC3CC(C2)CC1C3 (centres unmarked) [Compound S7]	–	–	3.8	–
OC1(C(F)(F)F)C2CC3CC(C2)CC1C3 (centres unmarked) [Compound S8]	–	10.6	14.0	–
O=[N+]([O-])C12CC3CC(CC(C3)C1)C2 [Compound S9]	–	19.9	24.0	–
Cl.NC12CCC3CC(CC(C3)C1)C2 [Compound S12]	–	13.3	32.8	–
O=C1C2CC3CC(C2)CC1C3 [Compound S13]	–	0	0	–
Cl.NC1C2CC3CC(C2)CC1C3 (centres unmarked) [Compound S14]	–	0	18.2	–
Cl.NC1CCC2(CC1)C1CC3CC(C1)CC2C3 (centres unmarked) [Compound S15, (1r, 3r,5r,7r)-spiro[adamantane-2,1′-cyclohexan]-4′-aminium chloride]	–	–	–	V27A % of inhibition by 100 μM for 2 min (AM2 (V27A)): 94.5 ± 0.4%
CC(N)C12CC3CC(CC(C3)C1)C2 (centres unmarked) [Rimantadine, reference compound]	–	–	–	S31N % of inhibition by 100 μM for 2 min (AM2 (S31N)): 13.3 ± 1.8%
